# Measured values as given in patent US20200385777A1, “METHOD FOR DETERMINING DYSBIOSIS IN THE INTESTINAL MICROBIOME” (EVOLVE BIOSYSTEMS, INC., priority 2018, published 2020).
# Tests used:
# [1] = test system: isolate 7005-13; assay: MIC microdilution, fecal isolate 7005-13; type: cell-based; details: for MIC: read-out: Minimum inhibitory concentration (MIC)
# Method: (§1) Whole genome sequencing and assembly of bacterial isolates. […] Selected isolates were grown in 20 ml LB broth overnight at 37° C. Cultures were aliquoted into 1 ml aliquots, centrifuged at 10,000×g for 5 min and the supernatant was removed. Cell pellets were resuspended in DNA/RNA Shield solution provided in DNA/RNA Shield Microbe Lysis tubes (Zymo Research, Irvine Calif.) and transferred into lysis tubes. High-molecular weight genomic DNA was extracted using the Quick-DNA Fecal/Soil
# (§2) Minimal inhibitory concentrations. […] Carbenicillin was added to growth media for transformed strains at a concentration of 100 μg/ml. The microtiter plates were incubated for 24 h at 37° C. The optical density (OD) of each well was measured at 600 nm using an automated microtiter plate reader (BIO-TEK, Synergy HT). The MIC corresponded to the lowest antibiotic concentration at which no growth was detected. All tests were performed in triplicate
# [2] = test system: isolate 7084-5; assay: MIC microdilution, fecal isolate 7084-5; type: cell-based; details: for MIC: read-out: Minimum inhibitory concentration (MIC)
# Method: as §1, §2
# [3] = test system: isolate 7174-5; assay: MIC microdilution, fecal isolate 7174-5; type: cell-based; details: for MIC: read-out: Minimum inhibitory concentration (MIC)
# Method: as §1, §2
# [4] = test system: isolate 7005-5; assay: MIC microdilution, fecal isolate 7005-5; type: cell-based; details: for MIC: read-out: Minimum inhibitory concentration (MIC)
# Method: as §1, §2
# [5] = test system: DH5α; assay: MIC microdilution, DH5α; type: cell-based; details: for MIC: read-out: Minimum inhibitory concentration (MIC)
# Method: as §2
# [6] = test system: isolate 7174-2; assay: MIC microdilution, fecal isolate 7174-2; type: cell-based; details: for MIC: read-out: Minimum inhibitory concentration (MIC)
# Method: as §1, §2
# [7] = test system: isolate 7122-1; assay: MIC microdilution, fecal isolate 7122-1; type: cell-based; details: for MIC: read-out: Minimum inhibitory concentration (MIC)
# Method: as §1, §2
# [8] = test system: isolate 7084-4; assay: MIC microdilution, fecal isolate 7084-4; type: cell-based; details: for MIC: read-out: Minimum inhibitory concentration (MIC)
# Method: as §1, §2
# [9] = test system: bacteria isolated from EMB agar from fecal samples of control infants; assay: MIC, fecal isolates of control infants taken together; type: cell-based, Escherichia coli; Raoultella planticola; details: all fecal isolates
# Method: To confirm the presence of full length, functional ARGs and the relationship of these ARGs to individual resistance phenotypes at the strain level, bacteria isolated from EMB agar were obtained from the fecal samples of four representative control infants. Whole-genome sequencing of twelve isolates was performed on a MinION sequencer and assembly led to an average coverage of 18× (min 5.4; max 40). Taxonomic identification was confirmed via BLASTN against the NCBI nucleotide database (https://www.ncbl.nlrn.nih.gov/nucleotide) showing three isolates classified as Raoultella planticola and the remaining nine as Escherichia coli. The CARD protein sequences collection was used as query against the twelve assembled isolates via TBLASTN. […] The latter genes are likely absent on the E. coli and R. planticola genomes and present on different species.
# Whole genome sequencing and assembly of bacterial isolates. […]
# Minimal inhibitory concentrations. Minimal inhibitory concentrations (MICs) were determined according to Clinical and Laboratory Standards Institute guidelines for microdilution susceptibility testing {Wikler, 2006}. […] The optical density (OD) of each well was measured at 600 nm using an automated microtiter plate reader (BIO-TEK, Synergy HT). The MIC corresponded to the lowest antibiotic concentration at which no growth was detected. […]
# [10] = test system: isolate 7174-4; assay: MIC microdilution, fecal isolate 7174-4; type: cell-based; details: for MIC: read-out: Minimum inhibitory concentration (MIC)
# Method: as §1, §2
# [11] = test system: isolate 7005-9; assay: MIC microdilution, fecal isolate 7005-9; type: cell-based; details: for MIC: read-out: Minimum inhibitory concentration (MIC)
# Method: as §1, §2
# [12] = test system: isolate 7005-11; assay: MIC microdilution, fecal isolate 7005-11; type: cell-based; details: for MIC: read-out: Minimum inhibitory concentration (MIC)
# Method: as §1, §2
# [13] = test system: isolate 7122-2; assay: MIC microdilution, fecal isolate 7122-2; type: cell-based; details: for MIC: read-out: Minimum inhibitory concentration (MIC)
# Method: as §1, §2
# [14] = test system: isolate 7084-1; assay: MIC microdilution, fecal isolate 7084-1; type: cell-based; details: for MIC: read-out: Minimum inhibitory concentration (MIC)
# Method: as §1, §2
# [15] = test system: isolate 7122-9; assay: MIC microdilution, fecal isolate 7122-9; type: cell-based; details: for MIC: read-out: Minimum inhibitory concentration (MIC)
# Method: as §1, §2
# [16] = test system: Clostridium difficile; assay: Equine trial: Clostridium difficile diarrhea outcome in foals; type: in vivo, horse; details: all foals dosed at birth with 6.6 mg/kg
# Method: Seventeen foals were born during the initiation of the outbreak, of which fifteen animals became ill and required intervention, applying the standard of care (i.e., antibiotic treatment) and two died. […] All treated animals were given doses immediately at birth and twice per day thereafter for 4 days. […] Two foals, who were dosed starting at 12 hours of life rather than immediately at birth, developed a mild infection by Clostridium difficile but recovered within 8 hr compared to the standard recovery time of >24 hr for sick animals given the standard of care. […] A Fisher's exact test of the two populations (Standard of Care and Probiotic treated) yields a significant difference in incidences of C. difficile infection (p=0.0036) (Table 10).
compound,measurement,setting,value
CC1(C)S[C@@H]2[C@H](NC(=O)[C@H](N)c3ccccc3)C(=O)N2[C@H]1C(=O)O [Ampicillin],Resistant/Susceptible according to breakpoints for clinical resistance,[1]; isolate 7005-13,(R)
same,MIC,[1],64 mg/L
same,Resistant/Susceptible according to breakpoints for clinical resistance,[2]; isolate 7084-5,(R)
same,MIC,[2],512 mg/L
same,Resistant/Susceptible according to breakpoints for clinical resistance,[3]; isolate 7174-5,(R)
same,MIC,[3],512 mg/L
same,Resistant/Susceptible according to breakpoints for clinical resistance,[4]; isolate 7005-5,(R)
same,MIC,[4],128 mg/L
same,Resistant/Susceptible according to breakpoints for clinical resistance,[5],(S)
same,MIC,[5],4 mg/L
same,Resistant/Susceptible according to breakpoints for clinical resistance,[6]; isolate 7174-2,(R)
same,MIC,[6],512 mg/L
same,Resistant/Susceptible according to breakpoints for clinical resistance,[7]; isolate 7122-1,(S)
same,MIC,[7],16 mg/L
same,Resistant/Susceptible according to breakpoints for clinical resistance,[8]; isolate 7084-4,(R)
same,MIC,[8],512 mg/L
same,Resistance among the isolates,[9],"With the exception of three isolates obtained from the same infant (7174), all of the isolates displayed resistance"
same,Resistant/Susceptible according to breakpoints for clinical resistance,[10]; isolate 7174-4,(R)
same,MIC,[10],512 mg/L
same,Resistant/Susceptible according to breakpoints for clinical resistance,[11]; isolate 7005-9,(R)
same,MIC,[11],128 mg/L
same,Resistant/Susceptible according to breakpoints for clinical resistance,[12]; isolate 7005-11,(R)
same,MIC,[12],64 mg/L
same,Resistant/Susceptible according to breakpoints for clinical resistance,[13]; isolate 7122-2,(S)
same,MIC,[13],16 mg/L
same,Resistant/Susceptible according to breakpoints for clinical resistance,[14]; isolate 7084-1,(R)
same,MIC,[14],512 mg/L
same,Resistant/Susceptible according to breakpoints for clinical resistance,[15]; isolate 7122-9,(S)
same,MIC,[15],16 mg/L
Cc1nnc(SCC2=C(C(=O)O)N3C(=O)[C@@H](NC(=O)Cn4cnnn4)[C@H]3SC2)s1 [Cefazolin],MIC,[1],64 mg/L
same,MIC,[2],32 mg/L
same,MIC,[3],512 mg/L
same,MIC,[4],64 mg/L
same,MIC,[5],< 4 mg/L
same,MIC,[6],64 mg/L
same,MIC,[7],8 mg/L
same,MIC,[8],32 mg/L
same,MIC,[10],512 mg/L
same,MIC,[11],64 mg/L
same,MIC,[12],64 mg/L
same,MIC,[13],8 mg/L
same,MIC,[14],32 mg/L
same,MIC,[15],8 mg/L
CO/N=C(\C(=O)N[C@@H]1C(=O)N2C(C(=O)[O-])=C(C[N+]3(C)CCCC3)CS[C@H]12)c1csc(N)n1 [Cefepime],MIC,[1],512 mg/L
same,MIC,[2],< 4 mg/L
same,MIC,[3],< 4 mg/L
same,MIC,[4],16 mg/L
same,MIC,[5],< 4 mg/L
same,MIC,[6],< 4 mg/L
same,MIC,[7],< 4 mg/L
same,MIC,[8],< 4 mg/L
same,MIC,[10],< 4 mg/L
same,MIC,[11],64 mg/L
same,MIC,[12],512 mg/L
same,MIC,[13],< 4 mg/L
same,MIC,[14],< 4 mg/L
same,MIC,[15],< 4 mg/L
CO/N=C(\C(=O)N[C@@H]1C(=O)N2C(C(=O)O)=C(COC(C)=O)CS[C@H]12)c1csc(N)n1 [Cefotaxime],Resistant/Susceptible according to breakpoints for clinical resistance,[1]; isolate 7005-13,(R)
same,MIC,[1],512 mg/L
same,Resistant/Susceptible according to breakpoints for clinical resistance,[2]; isolate 7084-5,(S)
same,MIC,[2],< 4 mg/L
same,Resistant/Susceptible according to breakpoints for clinical resistance,[3]; isolate 7174-5,(S)
same,MIC,[3],< 4 mg/L
same,Resistant/Susceptible according to breakpoints for clinical resistance,[4]; isolate 7005-5,(R)
same,MIC,[4],32 mg/L
same,Resistant/Susceptible according to breakpoints for clinical resistance,[5],(S)
same,MIC,[5],< 4 mg/L
same,Resistant/Susceptible according to breakpoints for clinical resistance,[6]; isolate 7174-2,(S)
same,MIC,[6],< 4 mg/L
same,Resistant/Susceptible according to breakpoints for clinical resistance,[7]; isolate 7122-1,(S)
same,MIC,[7],< 4 mg/L
same,Resistant/Susceptible according to breakpoints for clinical resistance,[8]; isolate 7084-4,(S)
same,MIC,[8],< 4 mg/L
same,Resistant/Susceptible according to breakpoints for clinical resistance,[10]; isolate 7174-4,(S)
same,MIC,[10],< 4 mg/L
same,Resistant/Susceptible according to breakpoints for clinical resistance,[11]; isolate 7005-9,(R)
same,MIC,[11],128 mg/L
same,Resistant/Susceptible according to breakpoints for clinical resistance,[12]; isolate 7005-11,(R)
same,MIC,[12],512 mg/L
same,Resistant/Susceptible according to breakpoints for clinical resistance,[13]; isolate 7122-2,(S)
same,MIC,[13],< 4 mg/L
same,Resistant/Susceptible according to breakpoints for clinical resistance,[14]; isolate 7084-1,(S)
same,MIC,[14],< 4 mg/L
same,Resistant/Susceptible according to breakpoints for clinical resistance,[15]; isolate 7122-9,(S)
same,MIC,[15],< 4 mg/L
CN(C)[C@@H]1C(O)=C(C(N)=O)C(=O)[C@@]2(O)C(O)=C3C(=O)c4c(O)cccc4[C@@](C)(O)[C@H]3C[C@@H]12 [Tetracycline],MIC,[2],16 mg/L
same,MIC,[3],64 mg/L
same,MIC,[5],< 4 mg/L
same,MIC,[6],64 mg/L
same,MIC,[7],16 mg/L
same,MIC,[8],16 mg/L
same,MIC,[10],128 mg/L
same,MIC,[13],8 mg/L
same,MIC,[14],16 mg/L
same,MIC,[15],8 mg/L
CO/N=C(\C(=O)N[C@@H]1C(=O)N2C(C(=O)O)=C(CSC(=O)c3ccco3)CS[C@H]12)c1csc(N)n1 [ceftiofur],Effect on health outcome related to diarrhea,[16],did not affect health outcome
Gentamicin,Minimum inhibitory concentration (MIC),[1]; isolate 7005-13,<4 mg/L
same,Resistant/Susceptible according to breakpoints for clinical resistance,[1]; isolate 7005-13,(S)
same,Minimum inhibitory concentration (MIC),[2]; isolate 7084-5,<4 mg/L
same,Resistant/Susceptible according to breakpoints for clinical resistance,[2]; isolate 7084-5,(S)
same,Minimum inhibitory concentration (MIC),[3]; isolate 7174-5,<4 mg/L
same,Resistant/Susceptible according to breakpoints for clinical resistance,[3]; isolate 7174-5,(S)
same,Minimum inhibitory concentration (MIC),[4]; isolate 7005-5,<4 mg/L
same,Resistant/Susceptible according to breakpoints for clinical resistance,[4]; isolate 7005-5,(S)
same,Minimum inhibitory concentration (MIC),[5],<4 mg/L
same,Resistant/Susceptible according to breakpoints for clinical resistance,[5],(S)
same,Minimum inhibitory concentration (MIC),[6]; isolate 7174-2,<4 mg/L
same,Resistant/Susceptible according to breakpoints for clinical resistance,[6]; isolate 7174-2,(S)
same,Minimum inhibitory concentration (MIC),[7]; isolate 7122-1,<4 mg/L
same,Resistant/Susceptible according to breakpoints for clinical resistance,[7]; isolate 7122-1,(S)
same,Minimum inhibitory concentration (MIC),[8]; isolate 7084-4,<4 mg/L
same,Resistant/Susceptible according to breakpoints for clinical resistance,[8]; isolate 7084-4,(S)
same,Resistance among the isolates,[9],No resistance
same,Minimum inhibitory concentration (MIC),[10]; isolate 7174-4,<4 mg/L
same,Resistant/Susceptible according to breakpoints for clinical resistance,[10]; isolate 7174-4,(S)
same,Minimum inhibitory concentration (MIC),[11]; isolate 7005-9,<4 mg/L
same,Resistant/Susceptible according to breakpoints for clinical resistance,[11]; isolate 7005-9,(S)
same,Minimum inhibitory concentration (MIC),[12]; isolate 7005-11,<4 mg/L
same,Resistant/Susceptible according to breakpoints for clinical resistance,[12]; isolate 7005-11,(S)
same,Minimum inhibitory concentration (MIC),[13]; isolate 7122-2,<4 mg/L
same,Resistant/Susceptible according to breakpoints for clinical resistance,[13]; isolate 7122-2,(S)
same,Minimum inhibitory concentration (MIC),[14]; isolate 7084-1,<4 mg/L
same,Resistant/Susceptible according to breakpoints for clinical resistance,[14]; isolate 7084-1,(S)
same,Minimum inhibitory concentration (MIC),[15]; isolate 7122-9,<4 mg/L
same,Resistant/Susceptible according to breakpoints for clinical resistance,[15]; isolate 7122-9,(S)
